Results taken from patent publication US10961200B2, “Small molecule inhibitors of lactate dehydrogenase and methods of use thereof” (THE UNITED STATES OF AMERICA, AS REPRESENTED BY THE …, priority 2014, dated 2021).

Molecular target: Human LDHA (Homo sapiens (Human), UniProt P00338)
Assay: human LDHA primary biochemical assay (resazurin/diaphorase coupled, fluorescence)
Details: LDHA inhibitory activity, activity level based on IC50 (Table 7)
Text: Test compounds were placed in a Greiner Bio-One (Monroe, N.C.) 1536-well black solid bottom assay plate. 200 millimolar (mM) Tris HCl, pH 7.4, 100 micromolar […] EDTA and 0.01% TWEEN-20™, final concentration, was used as the assay buffer. The LDHA reagent was 2 nanomolar (nM) Human LDHA (Meridian Life Science, Inc., Memphis, Tenn.), final concentration, in assay buffer.

Row | SMILES | IC50 [µM]
1 | CCCCC#Cc1cc(-c2nn(-c3nc(C(=O)O)cs3)c(CC3CC3)c2Cc2ccc(S(N)(=O)=O)c(F)c2)ccc1F [Compound 540, 2-(5-(cyclopropylmethyl)-3-(4-fluoro-3-(hex-1-yn-1-yl)phenyl)-4-(3-fluoro-4-sulfamoylbenzyl)-1H-pyrazol-1-yl)thiazole-4-carboxylic acid] | < 0.1
2 | Cc1ccc(-c2cc(-c3nn(-c4nc(C(=O)O)cs4)cc3Cc3ccc(S(N)(=O)=O)cc3)ccc2F)cc1 [Compound 476, 2-(3-(6-fluoro-4′-methyl-[1,1′-biphenyl]-3-yl)-4-(4-sulfamoylbenzyl)-1H-pyrazol-1-yl)thiazole-4-carboxylic acid] | < 0.1
3 | C/C=C/c1cc(-c2nn(-c3nc(C(=O)O)cs3)c(CC3CC3)c2Cc2ccc(S(N)(=O)=O)c(F)c2)ccc1F [Compound 533, (E)-2-(5-(cyclopropylmethyl)-3-(4-fluoro-3-(prop-1-en-1-yl)phenyl)-4-(3-fluoro-4-sulfamoylbenzyl)-1H-pyrazol-1-yl)thiazole-4-carboxylic acid] | < 0.1
4 | CC(C)CC#Cc1cc(-c2nn(-c3nc(C(=O)O)cs3)c(CC3CC3)c2Cc2ccc(S(N)(=O)=O)c(F)c2)ccc1F [Compound 538, 2-(5-(cyclopropylmethyl)-3-(4-fluoro-3-(4-methylpent-1-yn-1-yl)phenyl)-4-(3-fluoro-4-sulfamoylbenzyl)-1H-pyrazol-1-yl)thiazole-4-carboxylic acid] | < 0.1
5 | Cc1ccc(-c2cccc(-c3nn(-c4nc(C(=O)O)cs4)c(CC4CC4)c3Cc3ccc(S(N)(=O)=O)cc3F)c2)cc1 [Compound 363] | < 0.1
6 | NS(=O)(=O)c1ccc(Cc2c(-c3cccnc3)nn(-c3nc(C(=O)O)cs3)c2O)cc1 [Compound 453, 2-(5-hydroxy-3-(pyridin-3-yl)-4-(4-sulfamoylbenzyl)-1H-pyrazol-1-yl)thiazole-4-carboxylic acid] | 1 to 57
7 | N[S+](=O)([O-])c1ccc(Cc2c(C3CC3)nn(-c3nc(C(=O)O)cs3)c2-c2cccc(-c3cccc(F)c3)c2)cc1F [Compound 350] | 1 to 57
8 | Cc1ccc(-c2nn(-c3nc(C(=O)O)cs3)cc2Cc2ccc(S(N)(=O)=O)cc2)cc1-c1ccc(F)c(F)c1 [Compound 492, 2-(3-(3′,4′-difluoro-6-methyl-[1,1′-biphenyl]-3-yl)-4-(4-sulfamoylbenzyl)-1H-pyrazol-1-yl)thiazole-4-carboxylic acid] | 0.1 to 1
9 | Cc1oc(=O)oc1COC(=O)c1csc(-n2nc(-c3ccc(F)c(C#CC4CCCC4)c3)c(Cc3ccc(S(N)(=O)=O)c(F)c3)c2CC2CC2)n1 [Compound 441] | > 57
10 | NS(=O)(=O)c1ccc(Cc2cn(-c3nc(C(=O)O)cs3)nc2-c2cccc(-c3cccnc3)c2)cc1 [Compound 522, 2-(3-(3-(pyridin-3-yl)phenyl)-4-(4-sulfamoylbenzyl)-1H-pyrazol-1-yl)thiazole-4-carboxylic acid] | 0.1 to 1

Same assay, conditions: LDHA inhibitory activity, assay of Example 1; activity level classes

Row | SMILES | IC50 [µM]
11 | CCOC(=O)c1csc(-n2nc(-c3ccc(F)c(-c4ccc(F)cc4)c3)c(Cc3ccc(S(N)(=O)=O)c(F)c3)c2C2CC2)n1 [Compound 246] | 1 to 57
12 | O=C(O)c1csc(-n2cc(CNS(=O)(=O)N3CCNCC3)c(-c3ccccc3)n2)n1 [Compound 138, 2-(3-phenyl-4-((piperazine-1-sulfonamido)methyl)-1H-pyrazol-1-yl)thiazole-4-carboxylic acid] | > 57
13 | CCOC(=O)c1csc(-n2nc(-c3ccccc3)c(Cc3ccc(S(N)(=O)=O)cc3)c2C2CC2)n1 [Compound 272] | > 57
14 | CNS(=O)(=O)c1cc(-c2cc(O)n(-c3nc(C(=O)O)cs3)n2)ccc1F [Compound 114, 2-(3-(4-fluoro-3-(N-methylsulfamoyl)phenyl)-5-hydroxy-1H-pyrazol-1-yl)thiazole-4-carboxylic acid] | > 57
15 | COc1cc(-c2nn(-c3nc(C(=O)O)cs3)c(CC3CC3)c2Cc2ccc(S(N)(=O)=O)cc2)ccc1F [Compound 278] | < 0.1
16 | C#Cc1c(Cc2ccc(S(N)(=O)=O)cc2)c(-c2ccccc2)nn1-c1nc(C(=O)O)cs1 [Compound 271] | 1 to 57
17 | CS(=O)(=O)c1ccc(Cc2cn(-c3nc(C(=O)O)cs3)nc2-c2ccccc2)cc1 [Compound 27, 2-(4-(4-(methylsulfonyl)benzyl)-3-phenyl-1H-pyrazol-1-yl)thiazole-4-carboxylic acid] | > 57
18 | O=C(Oc1ccc2c(c1)CCC2)c1csc(-n2nc(-c3ccc(F)c(F)c3)cc2O)n1 [Compound 108, 2,3-dihydro-1H-inden-5-yl 2-(3-(3,4-difluorophenyl)-5-hydroxy-1H-pyrazol-1-yl)thiazole-4-carboxylate] | > 57
19 | CCOC(=O)c1csc(-n2nc(-c3cccc(-c4ccccc4)c3)c(Cc3ccc(S(N)(=O)=O)cc3)c2C2(C(F)(F)F)CC2)n1 [Compound 297] | > 57
20 | CCOC(=O)c1csc(-n2nc(-c3ccc(F)c(-c4cccc(F)c4)c3)c(Cc3ccc(S(N)(=O)=O)c(F)c3)c2CC2CC2)n1 [Compound 318] | > 57
21 | NS(=O)(=O)c1ccc(Cc2c(-c3cccc(-c4ccccc4)c3)nn(-c3nc(C(=O)O)cs3)c2C2(C(F)(F)F)CC2)cc1 [Compound 299] | 1 to 57
22 | NS(=O)(=O)c1ccc(Cc2c(-c3ccc(F)c(-c4ccc(F)cc4)c3)nn(-c3nc(C(=O)O)cs3)c2C(F)(F)F)cc1 [Compound 240] | < 0.1
23 | COc1cccc(-c2cccc(-c3nn(-c4nc(C(=O)O)cs4)c(C(F)(F)F)c3Cc3ccc(S(N)(=O)=O)cc3)c2)c1 [Compound 314] | < 0.1
24 | CCOC(=O)c1ccc(-n2nc(-c3ccccc3)c(Cc3ccc(S(N)(=O)=O)cc3)c2N)nn1 [Compound 140, ethyl 6-(5-amino-3-phenyl-4-(4-sulfamoylbenzyl)-1H-pyrazol-1-yl)pyridazine-3-carboxylate] | > 57

Same assay, conditions: read-out: Inhibitory activity IC50

Row | SMILES | IC50 [µM]
25 | NS(=O)(=O)c1ccc(Cc2cn(-c3nc(C(=O)O)cs3)c3cc(CO)ccc23)cc1 [Compound 201, 2-(6-(hydroxymethyl)-3-(4-sulfamoylbenzyl)-1H-indol-1-yl)thiazole-4-carboxylic acid] | 0.1 to 1
26 | Nc1ncnc2c(-n3cc(Cc4ccc(S(N)(=O)=O)cc4)c(-c4ccccc4)n3)csc12 [Compound 211, 4-((1-(4-aminothieno[3,2-d]pyrimidin-7-yl)-3-phenyl-1H-pyrazol-4-yl)methyl)benzenesulfonamide] | 1 to 57
27 | Cc1sc(-n2nc(-c3ccccc3)c(Cc3ccc(S(N)(=O)=O)cc3)c2N)nc1C(=O)O [Compound 57, 2-(5-amino-3-phenyl-4-(4-sulfamoylbenzyl)-1H-pyrazol-1-yl)-5-methylthiazole-4-carboxylic acid] | 0.1 to 1
28 | O=C(O)c1csc(-n2nc(-c3ccccc3)cc2C(F)(F)F)n1 [Compound 62, 2-(3-phenyl-5-(trifluoromethyl)-1H-pyrazol-1-yl)thiazole-4-carboxylic acid] | 1 to 57
29 | NS(=O)(=O)c1ccc(Oc2c(-c3ccccc3)nn(-c3nc(C(=O)O)cs3)c2O)cc1 [Compound 24, 2-(5-hydroxy-3-phenyl-4-(4-sulfamoylphenoxy)-1H-pyrazol-1-yl)thiazole-4-carboxylic acid] | 0.1 to 1
30 | O=C(O)c1csc(-n2ccc(-c3cccc(-c4ccccc4)c3)n2)n1 [Compound 22, 2-(3-([1,1′-biphenyl]-3-yl)-1H-pyrazol-1-yl)thiazole-4-carboxylic acid] | 1 to 57
31 | Nc1c(Cc2ccc(S(N)(=O)=O)cc2)c(-c2ccccc2)nn1-c1ccc(Cl)nn1 [Compound 83, 4-((5-amino-1-(6-chloropyridazin-3-yl)-3-phenyl-1H-pyrazol-4-yl)methyl)benzenesulfonamide] | 1 to 57
32 | NS(=O)(=O)c1ccc(Oc2c(C3CC3)nn(-c3nc(C(=O)O)cs3)c2-c2cccc(-c3ccccc3)c2)cc1 [Compound 186, 2-(5-([1,1′-biphenyl]-3-yl)-3-cyclopropyl-4-(4-sulfamoylphenoxy)-1H-pyrazol-1-yl)thiazole-4-carboxylic acid] | 1 to 57
33 | O=C(O)c1csc(-n2cc(Br)c(-c3cccc(-c4ccccc4)c3)n2)n1 [Compound 21, 2-(3-([1,1′-biphenyl]-3-yl)-4-bromo-1H-pyrazol-1-yl)thiazole-4-carboxylic acid] | 1 to 57
34 | NS(=O)(=O)c1ccc(-c2cn(-c3nc(C(=O)O)cs3)nc2-c2ccccc2)cc1 [Compound 76, 2-(3-phenyl-4-(4-sulfamoylphenyl)-1H-pyrazol-1-yl)thiazole-4-carboxylic acid] | 1 to 57
35 | N[S+](=O)([O-])c1ccc(Cc2c(C3(C(F)(F)F)CC3)nn(-c3nc(C(=O)O)cs3)c2-c2cccc(-c3ccccc3)c2)cc1F [Compound 301] | 1 to 57
36 | CCOC(=O)c1csc(-n2nc(-c3ccccc3)c(Cc3ccc(S(N)(=O)=O)cc3)c2N)n1 [Compound 58, ethyl 2-(5-amino-3-phenyl-4-(4-sulfamoylbenzyl)-1H-pyrazol-1-yl)thiazole-4-carboxylate] | 1 to 57
37 | N[S+](=O)([O-])c1ccc(Cc2c(Cc3ccccc3)nn(-c3nc(C(=O)O)cs3)c2-c2ccccc2)cc1 [Compound 275] | 1 to 57
38 | NS(=O)(=O)c1ccc(Cc2c(C3CC3)nn(-c3nc(C(=O)O)cs3)c2-c2cccc(-c3ccccc3)c2)cc1 [Compound 184, 2-(5-([1,1′-biphenyl]-3-yl)-3-cyclopropyl-4-(4-sulfamoylbenzyl)-1H-pyrazol-1-yl)thiazole-4-carboxylic acid] | 1 to 57
39 | Nc1c(Cc2ccc(S(N)(=O)=O)cc2)c(-c2ccccc2)nn1-c1nc(C(=O)O)co1 [Compound 153, 2-(5-amino-3-phenyl-4-(4-sulfamoylbenzyl)-1H-pyrazol-1-yl)oxazole-4-carboxylic acid] | 0.1 to 1
40 | NS(=O)(=O)c1ccc(Cc2c(-c3ccccc3)nn(-c3nc(C(=O)O)cs3)c2Nc2cccnc2)cc1 [Compound 80, 2-(3-phenyl-5-(pyridin-3-ylamino)-4-(4-sulfamoylbenzyl)-1H-pyrazol-1-yl)thiazole-4-carboxylic acid] | 1 to 57
